One test deals with TP309-XA21 rice leaves. Set-up: species or system Oryza sativa ssp. japonica. As to conditions: in vivo.
The target of test [1] is XA21 (in leaves of the TP309-XA21 transgenic rice line 106-17-3-37) (rice) (UniProt Q1MX30). The test can be described thus: cell-based or functional assay.
The target in a further test is T1, Myc-XA21 (Oryza sativa subsp. indica, UniProt Q1MX30).
T1 construct: expressed in transfected cells; host or cells: leaf extract of a Kitaake (Oryza sativa ssp. japonica) transgenic rice line carrying Myc-XA21
T1 sequence (Q1MX30 24-1025): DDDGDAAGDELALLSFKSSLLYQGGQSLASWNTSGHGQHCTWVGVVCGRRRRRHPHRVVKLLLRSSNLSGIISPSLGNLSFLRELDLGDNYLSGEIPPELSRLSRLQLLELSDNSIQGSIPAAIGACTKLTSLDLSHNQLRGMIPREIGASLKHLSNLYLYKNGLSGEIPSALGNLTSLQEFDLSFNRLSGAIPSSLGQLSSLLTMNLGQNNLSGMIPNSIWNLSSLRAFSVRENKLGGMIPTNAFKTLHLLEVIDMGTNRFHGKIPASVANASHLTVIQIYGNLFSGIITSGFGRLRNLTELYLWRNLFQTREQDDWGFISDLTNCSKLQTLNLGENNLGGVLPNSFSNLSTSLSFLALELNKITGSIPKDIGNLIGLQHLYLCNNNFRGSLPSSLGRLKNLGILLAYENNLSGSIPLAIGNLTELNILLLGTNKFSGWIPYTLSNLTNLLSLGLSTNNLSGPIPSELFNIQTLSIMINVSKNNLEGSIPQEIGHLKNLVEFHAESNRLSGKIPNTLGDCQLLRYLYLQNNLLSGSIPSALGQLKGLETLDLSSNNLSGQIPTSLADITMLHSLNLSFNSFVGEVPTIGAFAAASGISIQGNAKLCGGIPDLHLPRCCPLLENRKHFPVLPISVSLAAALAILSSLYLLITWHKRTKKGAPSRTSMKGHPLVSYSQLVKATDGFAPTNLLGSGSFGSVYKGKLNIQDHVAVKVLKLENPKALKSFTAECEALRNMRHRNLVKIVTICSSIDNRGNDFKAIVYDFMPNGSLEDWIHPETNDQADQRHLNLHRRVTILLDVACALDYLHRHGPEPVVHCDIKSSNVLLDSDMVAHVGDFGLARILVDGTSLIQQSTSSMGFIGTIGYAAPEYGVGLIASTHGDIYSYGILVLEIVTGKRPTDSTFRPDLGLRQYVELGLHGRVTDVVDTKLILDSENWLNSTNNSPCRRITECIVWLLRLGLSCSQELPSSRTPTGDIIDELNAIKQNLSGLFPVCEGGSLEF
Put plainly: Ax21/XA21 binding assay (cross-linking and co-immunoprecipitation). Set-up: species or system rice. As to conditions: 5- to 10-fold excess competitor over HA-tagged AxY^S22; Myc-XA21 leaf extracts. As for the experimental part: Binding of the C terminal HA tagged AxY^S22 (AxY^S22-HA) to N-terminal tagged Myc XA21 (Myc-XA21) complex was carried out using cross-linked analysis according to methods described previously (C. Zipfel et al., Cell 125, 749 (2006); Z. Bauer, L. Gomez-Gomez, T. Boller, G. Felix, J Biol Chem 276, 45669 (2001); D. Chinchilla, Z. Bauer, M. Regenass, T. Boller, G. Felix, Plant Cell 18, 465 (2006)). Fully expanded rice leaves were harvested from five-week old Myc-XA21 transgenic and Kitaake control plants. Total proteins were extracted from five g of leaf tissue in 10 ml of ice-cold extraction buffer [0.15 M NaCl, 0.01 M Na-phosphate pH 7.2, 2 mM EDTA, 0.1% Triton X-100, 10 mM β-mercaptoethanol, 20 mM NaF, 1 mM PMSF, 1% Protease cocktail (Sigma), 2 μg/ml leupeptin, 2 μg/ml antipain, and 2 μg/ml aprotinin] […] Duplicate protein gel blots were analyzed with anti-Myc and anti-HA antibodies, respectively.

For a further test, the system named is PXO99ΔraxST. Set-up: species or system Xanthomonas oryzae pv. oryzae. As to conditions: in vivo.
In a further test the target is OsFLS2 (Oryza sativa subsp. japonica, UniProt Q0JA29). As to conditions: in rice; cited from earlier work.

Entries after “also recorded” stand apart in the source; their conditions may differ.

Chain of OsFLS2 (Q0JA29 42-1183): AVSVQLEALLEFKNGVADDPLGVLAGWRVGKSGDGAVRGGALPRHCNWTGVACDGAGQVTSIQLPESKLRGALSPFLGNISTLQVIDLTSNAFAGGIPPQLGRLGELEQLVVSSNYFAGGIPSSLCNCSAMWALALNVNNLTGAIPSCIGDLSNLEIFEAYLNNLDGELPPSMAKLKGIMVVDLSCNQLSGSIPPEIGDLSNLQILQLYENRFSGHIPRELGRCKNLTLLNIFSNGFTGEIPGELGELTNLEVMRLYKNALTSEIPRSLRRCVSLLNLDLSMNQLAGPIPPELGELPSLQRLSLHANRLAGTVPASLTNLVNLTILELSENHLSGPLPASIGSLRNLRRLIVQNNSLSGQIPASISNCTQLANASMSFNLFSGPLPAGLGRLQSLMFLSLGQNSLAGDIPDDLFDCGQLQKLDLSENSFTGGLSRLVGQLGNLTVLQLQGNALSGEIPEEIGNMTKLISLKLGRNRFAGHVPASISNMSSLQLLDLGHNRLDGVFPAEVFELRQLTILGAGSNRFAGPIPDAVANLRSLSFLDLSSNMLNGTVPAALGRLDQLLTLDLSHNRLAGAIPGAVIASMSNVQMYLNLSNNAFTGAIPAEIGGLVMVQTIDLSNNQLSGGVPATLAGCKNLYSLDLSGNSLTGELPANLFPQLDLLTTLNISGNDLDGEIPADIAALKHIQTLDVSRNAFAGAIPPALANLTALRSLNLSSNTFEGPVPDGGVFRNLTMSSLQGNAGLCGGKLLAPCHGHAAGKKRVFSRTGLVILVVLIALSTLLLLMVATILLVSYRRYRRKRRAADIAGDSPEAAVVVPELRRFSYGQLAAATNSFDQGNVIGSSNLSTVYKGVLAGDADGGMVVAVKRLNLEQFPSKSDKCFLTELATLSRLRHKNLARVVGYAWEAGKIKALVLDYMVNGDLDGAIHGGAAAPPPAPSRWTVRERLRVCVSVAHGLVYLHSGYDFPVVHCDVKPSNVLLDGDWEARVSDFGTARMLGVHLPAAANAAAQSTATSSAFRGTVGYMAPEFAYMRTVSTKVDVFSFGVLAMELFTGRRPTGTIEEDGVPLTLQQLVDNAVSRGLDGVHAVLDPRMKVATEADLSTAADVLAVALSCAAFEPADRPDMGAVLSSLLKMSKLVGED

For the substance “Ax21: Activator of Xa21-mediated immunity; 194 aa protein encoded by PXO_03968”, in the test on TP309-XA21 rice leaves, the “extent of induced resistance” value is listed as “robust resistance”.
Take AxY^S22 peptide (no HA tag): in test [1], the concentration sufficient for PAMP activity (lesion length in TP309-XA21 rice) turned out to be 1 µM and the reduction in PXO99ΔraxST population growth (growth curve analysis) is 1000 fold.
Consider AENLS(sulfated Y)NFVEGDYVRTP [axY^S22], for which, at Myc-XA21, the “effect of competitor on labeling of the 140 kDa band (AxY^S22/XA21 binding)” value is reported as “suppressed the labeling of this band”. In the test on TP309-XA21 rice leaves, the “activation of XA21-mediated immunity (lesion length)” value is on record as “activated XA21-mediated immunity; also recorded: sufficient to activate XA21 mediated immunity” and the “concentration sufficient for PAMP activity” value was determined as 1 µM. In the test on PXO99ΔraxST, the “reduction in PXO99ΔraxST population growth” value is on record as 1000 fold and the “triggering of XA21-mediated immunity (growth curve analysis)” value was “triggered resistance to PXO99ΔraxST; also recorded: triggers immunity in TP309-XA21 rice”.
As for “QRLSSGLRINSAKDDAAGLAIS (Acidovorax avenae flg22; listed as Acidovorax avenae) [flg22ave, flg22 from the rice pathogen Acidovorax avenae, reference compound]”, in the test with Myc-XA21, the “effect of competitor on labeling of the 140 kDa band (AxY^S22/XA21 binding)” value is reported as “no effect on AxY^S22/XA21 binding”. The “concentration that can induce OsFLS2-mediated response” value in the test with OsFLS2 was 0.5 µM.
Consider AENLSYNFVEGDYVRTP [axY22], for which, in the test on PXO99ΔraxST, the “triggering of XA21-mediated immunity (growth curve analysis)” value is on record as “unable to trigger Xa21-mediated immunity; also recorded: no detectable activity”.

The values above are taken from patent US20120151636A1, “Peptides for Stimulating Plant Disease Resistance” (The Regents of the University of California, priority 2009, published 2012).
